# Data: article PMC7421780 (Future Medicinal Chemistry, 2020)
# Where two headings read alike, the source gives them in different places.
# Columns and labels:
# intracellular Mtb H37Rv = assay: microbe, parasite or virus in culture; assay type: cell-based; conditions: Mycobacterium tuberculosis; for IC50: THP-1, read-out: IC50 intracell; for IC90: THP-1, read-out: IC90 intracell
# Mtb H37Rv [1] = assay: Primary screen: MIC, IC50 and IC90 under aerobic conditions; assay type: cell-based; conditions: Mycobacterium tuberculosis
# Mtb H37Rv [2] = assay: Secondary assay: MIC, IC50 and IC90 repeated at lower starting concentrations; assay type: cell-based; conditions: Mycobacterium tuberculosis; for MIC: read-out: MIC aerobic condition
# NRP Mtb H37Rv = assay: microbe, parasite or virus in culture; assay type: cell-based; conditions: Mycobacterium tuberculosis
# physchem = conditions: aqueous with cosolvent or surfactant or cyclodextrin, kinetic from dmso stock
# in vitro [3] = conditions: human
# HepG2 cytotoxicity = assay type: cell-based; conditions: human, HepG2 cells
# Mycobacterium avium = assay: MIC against nontuberculous mycobacteria, Alamar blue; assay type: cell-based; conditions: Mycobacterium avium
# Mycobacterium abscessus = assay: MIC, IC50, IC90 against nontuberculous mycobacteria; assay type: cell-based; conditions: for IC50 / IC90 / MIC: Mycobacteroides abscessus
# Mtb H37Rv [4] = assay: Minimal bactericidal concentration; assay type: cell-based, Mycobacterium tuberculosis; conditions: Mtb H37Rv aerobic
# [5] = In vitro microsomal stability assay; conditions: Human, 1 μM
# [6] = Human plasma, equilibrium dialysis
# in vitro [7] = conditions: human; remark: listed apart in the source
# [8] = Caco-2 cell monolayer permeability assay; conditions: human
smiles,measurement,setting,value
"NNC(=O)c1ccncc1 [Isoniazid, reference compound]",IC50,intracellular Mtb H37Rv,0.23 µM
same,IC90,intracellular Mtb H37Rv,0.29 µM
"O=C(C[n+]1ccn(Cc2cccc(Cn3cc[n+](CC(=O)c4ccc(Cl)cc4)c3)n2)c1)c1ccc(Cl)cc1 [Compound 4e, 1,1′-(pyridine-2,6-diylbis(methylene))bis(3-(2-(4-chlorophenyl)-2-oxoethyl)-1H-imidazol-3-ium) bromide]",IC50,Mtb H37Rv [1],34 µM
same,IC90,Mtb H37Rv [1],63 µM
same,MIC,Mtb H37Rv [1],51 µM
"COc1ccc(C(=O)C[n+]2ccn(Cc3cccc(Cn4cc[n+](CC(=O)c5ccc(OC)cc5)c4)n3)c2)cc1 [Compound 4g, 1,1′-(pyridine-2,6-diylbis(methylene))bis(3-(2-(4-methoxyphenyl)-2-oxoethyl)-1H-imidazol-3-ium) bromide]",IC50,Mtb H37Rv [1],160 µM
same,IC90,Mtb H37Rv [1],> 200 µM
same,MIC,Mtb H37Rv [1],> 200 µM
"c1cc(Cn2cnc3ccccc32)nc(Cn2cnc3ccccc32)c1 [Compound 5, 2,6-bis((1H-benzo[d]imidazol-1-yl)methyl)pyridine]",IC50,Mtb H37Rv [1],43 µM
same,IC90,Mtb H37Rv [1],> 50 µM
same,MIC,Mtb H37Rv [1],> 50 µM
same,IC50,Mtb H37Rv [2],> 50 µM
same,IC90,Mtb H37Rv [2],> 50 µM
same,MIC,Mtb H37Rv [2],> 50 µM
same,IC50,NRP Mtb H37Rv; Low oxygen,> 50 µM
same,IC90,NRP Mtb H37Rv; Low oxygen,> 50 µM
same,MIC,NRP Mtb H37Rv; Low oxygen,> 50 µM
same,IC50,NRP Mtb H37Rv; Normal oxygen,> 50 µM
same,IC90,NRP Mtb H37Rv; Normal oxygen,> 50 µM
same,MIC,NRP Mtb H37Rv; Normal oxygen,> 50 µM
same,IC50,intracellular Mtb H37Rv,> 200 µM
same,IC90,intracellular Mtb H37Rv,> 200 µM
same,solubility,physchem,> 200 µM
same,IC50,in vitro [3],> 50 µM
"O=C(C[n+]1ccn(Cc2cccc(Cn3cc[n+](CC(=O)c4ccccc4)c3)n2)c1)c1ccccc1 [Compound 4c, 1,1′-(pyridine-2,6-diylbis(methylene))bis(3-(2-oxo-2-phenylethyl)-1H-imidazol-3-ium) bromide]",IC50,Mtb H37Rv [1],> 200 µM
same,IC90,Mtb H37Rv [1],> 200 µM
same,MIC,Mtb H37Rv [1],> 200 µM
"CN[C@@H]1C[C@H]2O[C@@](C)([C@@H]1OC)n1c3ccccc3c3c4c(c5c6ccccc6n2c5c31)C(=O)NC4 [Staurosporine, reference compound]",IC50 at 72 h,HepG2 cytotoxicity,0.0086 µM
same,IC50,in vitro [3],0.018 µM
"COC(=O)C[n+]1cn(Cc2cccc(Cn3c[n+](CC(=O)OC)c4ccccc43)n2)c2ccccc21 [Compound 6a, 1,1′-(pyridine-2,6-diylbis(methylene))bis(3-(2-methoxy-2-oxoethyl)-1H-benzo[d]imidazol-3-ium) bromide]",IC50,Mtb H37Rv [1],> 200 µM
same,IC90,Mtb H37Rv [1],> 200 µM
same,MIC,Mtb H37Rv [1],> 200 µM
"CO[C@H]1/C=C/O[C@@]2(C)Oc3c(C)c(O)c4c(O)c(c(/C=N/N5CCN(C)CC5)c(O)c4c3C2=O)NC(=O)/C(C)=C\C=C\[C@H](C)[C@H](O)[C@@H](C)[C@@H](O)[C@@H](C)[C@H](OC(C)=O)[C@@H]1C [Rifampicin, reference compound]",IC50,Mtb H37Rv [2],0.004 µM
same,IC90,Mtb H37Rv [2],0.0077 µM
same,MIC,Mtb H37Rv [2],0.0063 µM
same,IC50,NRP Mtb H37Rv; Low oxygen,0.0041 µM
same,IC90,NRP Mtb H37Rv; Low oxygen,0.0065 µM
same,MIC,NRP Mtb H37Rv; Low oxygen,0.13 µM
same,MIC,NRP Mtb H37Rv; Normal oxygen,0.096 µM
same,MIC,Mycobacterium avium,> 200 µM
same,IC50,Mycobacterium abscessus,2.1 µM
same,IC90,Mycobacterium abscessus,3.1 µM
same,MIC,Mycobacterium abscessus,3.3 µM
"O=C(C[n+]1ccn(Cc2cccc(Cn3cc[n+](CC(=O)c4ccc([N+](=O)[O-])cc4)c3)n2)c1)c1ccc([N+](=O)[O-])cc1.[Br-].[Br-] [Compound 4f, 1,1′-(pyridine-2,6-diylbis(methylene))bis(3-(2-(4-nitrophenyl)-2-oxoethyl)-1H-imidazol-3-ium) bromide]",IC50,Mtb H37Rv [1],38 µM
same,IC90,Mtb H37Rv [1],71 µM
same,MIC,Mtb H37Rv [1],58 µM
same,IC50,Mtb H37Rv [2],45 µM
same,IC90,Mtb H37Rv [2],140 µM
same,MIC,Mtb H37Rv [2],104 µM
same,IC50,NRP Mtb H37Rv; Low oxygen,25 µM
same,IC90,NRP Mtb H37Rv; Low oxygen,65 µM
same,MIC,NRP Mtb H37Rv; Low oxygen,183 µM
same,IC50,NRP Mtb H37Rv; Normal oxygen,49 µM
same,IC90,NRP Mtb H37Rv; Normal oxygen,78 µM
same,MIC,NRP Mtb H37Rv; Normal oxygen,129 µM
same,mechanism of action (bacteriostatic or bactericidal),Mtb H37Rv [4],bactericidal
same,MIC,Mycobacterium avium,> 200 µM
same,activity against M. abscessus (in words),Mycobacterium abscessus,showed activity
same,IC50,Mycobacterium abscessus,89 µM
same,IC90,Mycobacterium abscessus,97 µM
same,MIC,Mycobacterium abscessus,110 µM
same,IC50,intracellular Mtb H37Rv,26 µM
same,IC90,intracellular Mtb H37Rv,48 µM
same,IC50,in vitro [3],> 50 µM
"COC(=O)C[n+]1ccn(Cc2cccc(Cn3cc[n+](CC(=O)OC)c3)n2)c1 [Compound 4a, 1,1′-(pyridine-2,6-diylbis(methylene))bis(3-(2-methoxy-2-oxoethyl)-1H-imidazol-3-ium) bromide]",IC50,Mtb H37Rv [1],> 200 µM
same,IC90,Mtb H37Rv [1],> 200 µM
same,MIC,Mtb H37Rv [1],> 200 µM
"NC(=O)C[n+]1cn(Cc2cccc(Cn3c[n+](CC(N)=O)c4ccccc43)n2)c2ccccc21 [Compound 6b, 1,1′-(pyridine-2,6-diylbis(methylene))bis(3-(2-amino-2-oxoethyl)-1H-benzo[d]imidazol-3-ium) iodide]",IC50,Mtb H37Rv [1],180 µM
same,IC90,Mtb H37Rv [1],> 200 µM
same,MIC,Mtb H37Rv [1],> 200 µM
"O=[N+]([O-])c1cn(Cc2cccc(Cn3cnc([N+](=O)[O-])c3)n2)cn1 [Compound 2b, 2,6-bis((4-nitro-1H-imidazol-1-yl)methyl)pyridine]",IC50,Mtb H37Rv [1],77 µM
same,IC90,Mtb H37Rv [1],100 µM
same,MIC,Mtb H37Rv [1],92 µM
same,IC50,Mtb H37Rv [2],93 µM
same,IC90,Mtb H37Rv [2],100 µM
same,MIC,Mtb H37Rv [2],101 µM
same,IC50,NRP Mtb H37Rv; Low oxygen,26 µM
same,IC90,NRP Mtb H37Rv; Low oxygen,91 µM
same,MIC,NRP Mtb H37Rv; Low oxygen,200 µM
same,IC50,NRP Mtb H37Rv; Normal oxygen,> 200 µM
same,IC90,NRP Mtb H37Rv; Normal oxygen,> 200 µM
same,MIC,NRP Mtb H37Rv; Normal oxygen,> 200 µM
same,IC50,intracellular Mtb H37Rv,> 200 µM
same,IC90,intracellular Mtb H37Rv,> 200 µM
same,IC50,in vitro [3],> 50 µM
"NC(=O)C[n+]1ccn(Cc2cccc(Cn3cc[n+](CC(N)=O)c3)n2)c1 [Compound 4b, 1,1′-(pyridine-2,6-diylbis(methylene))bis(3-(2-amino-2-oxoethyl)-1H-imidazol-3-ium) iodide]",IC50,Mtb H37Rv [1],> 200 µM
same,IC90,Mtb H37Rv [1],> 200 µM
same,MIC,Mtb H37Rv [1],> 200 µM
"COc1ccc(C(=O)C[n+]2cn(Cc3cccc(Cn4c[n+](CC(=O)c5ccc(OC)cc5)c5ccccc54)n3)c3ccccc32)cc1 [Compound 6g, 1,1′-(pyridine-2,6-diylbis(methylene))bis(3-(2-(4-methoxyphenyl)-2-oxoethyl)-1H-benzo[d]imidazol-3-ium) bromide]",MIC,Mtb H37Rv [1],58 µM
"COc1ccc2c(c1)[C@]13CCCC[C@@H]1[C@H](C2)N(C)CC3 [Dextromethorphan, reference compound]",NADPH-free CLint,[5],<12.8 µL/min/mg
same,NADPH-free T1/2,[5],>3 h
"O=C(C[n+]1cn(Cc2cccc(Cn3c[n+](CC(=O)c4ccccc4)c4ccccc43)n2)c2ccccc21)c1ccccc1.[Br-].[Br-] [Compound 6c, 1,1′-(pyridine-2,6-diylbis(methylene))bis(3-(2-oxo-2-phenylethyl)-1H-benzo[d]imidazol-3-ium) bromide]",IC50,Mtb H37Rv [1],25 µM
same,IC90,Mtb H37Rv [1],60 µM
same,MIC,Mtb H37Rv [1],56 µM
same,IC50,Mtb H37Rv [2],34 µM
same,IC90,Mtb H37Rv [2],110 µM
same,MIC,Mtb H37Rv [2],87 µM
same,IC50,NRP Mtb H37Rv; Low oxygen,16 µM
same,IC90,NRP Mtb H37Rv; Low oxygen,130 µM
same,MIC,NRP Mtb H37Rv; Low oxygen,200 µM
same,IC50,NRP Mtb H37Rv; Normal oxygen,17 µM
same,IC90,NRP Mtb H37Rv; Normal oxygen,60 µM
same,MIC,NRP Mtb H37Rv; Normal oxygen,> 200 µM
same,mechanism of action (bacteriostatic or bactericidal),Mtb H37Rv [4],bactericidal
same,MIC,Mycobacterium avium,> 200 µM
same,activity against M. abscessus (in words),Mycobacterium abscessus,showed activity
same,IC50,Mycobacterium abscessus,120 µM
same,IC90,Mycobacterium abscessus,200 µM
same,MIC,Mycobacterium abscessus,> 200 µM
same,IC50,intracellular Mtb H37Rv,37 µM
same,IC90,intracellular Mtb H37Rv,> 50 µM
same,IC50,in vitro [3],> 50 µM
"CC(C)NCC(O)COc1cccc2ccccc12 (centres unmarked) [Propranolol, reference compound]",Mean plasma fraction bound,[6],79.3%
same,recovery,in vitro [7],93%
same,fraction unbound,in vitro [7]; plasma,0.207
same,Papp B→A,[8]; Caco-2,25 ×10⁻⁶ cm/s
same,Papp A→B,"[8]; Caco-2, Mean A→B Papp, Caco-2, apical to basal",12.7 ×10⁻⁶ cm/s
"c1cc(Cn2ccnc2)nc(Cn2ccnc2)c1 [Compound 2a, 2,6-bis((1H-imidazol-1-yl)methyl)pyridine]",IC50,Mtb H37Rv [1],> 200 µM
same,IC90,Mtb H37Rv [1],> 200 µM
same,MIC,Mtb H37Rv [1],> 200 µM
same,solubility,physchem,> 200 µM
"O=C(C[n+]1cn(Cc2cccc(Cn3c[n+](CC(=O)c4ccc(Cl)cc4)c4ccccc43)n2)c2ccccc21)c1ccc(Cl)cc1 [Compound 6e, 1,1′-(pyridine-2,6-diylbis(methylene))bis(3-(2-(4-chlorophenyl)-2-oxoethyl)-1H-benzo[d]imidazol-3-ium) bromide]",IC50,Mtb H37Rv [1],7.9 µM
same,IC90,Mtb H37Rv [1],18 µM
same,MIC,Mtb H37Rv [1],17 µM
"Cc1ncc([N+](=O)[O-])n1CCO [Metronidazole, reference compound]",IC50,NRP Mtb H37Rv; Low oxygen,29 µM
same,IC90,NRP Mtb H37Rv; Low oxygen,110 µM
same,MIC,NRP Mtb H37Rv; Low oxygen,200 µM
same,IC50,NRP Mtb H37Rv; Normal oxygen,> 200 µM
same,IC90,NRP Mtb H37Rv; Normal oxygen,> 200 µM
same,MIC,NRP Mtb H37Rv; Normal oxygen,> 200 µM
CC(=O)CC(c1ccccc1)c1c(O)c2ccccc2oc1=O (centres unmarked) [Warfarin],recovery,[6],96.7
